# Laboratory results: patent US20090312349A1, “ANTI-INFLAMMATORY MEDICAMENTS” (priority 2004, published 2009)
# Like-named read-outs stand apart in the source and are kept apart here.
# Assays:
# Type in all cases: biochemical
# [1] = molecular target: phosphorylated p-38-alpha kinase (Homo sapiens, UniProt Q16539); assay: P-38 alpha kinase assay P1; settings: Method P1; for IC50: 2 h pre-incubation before ATP
# [2] = molecular target: T1, phospho p-38 alpha kinase (Homo sapiens, UniProt Q16539); assay: P-38 alpha kinase assay (spectrophotometric, pyruvate kinase/lactate dehydrogenase coupled)
# T1 construct: purchased Panvera
# [3] = molecular target: B-Raf(V599E) kinase (Homo sapiens, UniProt P15056, V600E); assay: B-Raf(V599E) kinase assay B1; settings: for IC50: Method B1, construct 1; for inhibition at 1 µM: read-out: Results, % @ concentration μM
# Method: The test compounds were incubated with the reaction mixture at 30° C. for 2 h. […] The reaction rate was calculated using the 1.5 h to 2.5 h time frame. […] IC50 values were calculated from a series of percent inhibition values determined at a range of inhibitor concentrations using software routines as implemented in the GraphPad Prism software package.
# [4] = molecular target: KDR kinase (Homo sapiens, UniProt P35968, DEL940-989/E990V); assay: KDR kinase assay K1; settings: read-out: Results, % @ concentration μM, Method K1; @ 10 μM
# Method: IC50 values were calculated from a series of percent inhibition values determined at a range of inhibitor concentrations using software routines as implemented in the GraphPad Prism software package.
# [5] = Table 5, assay not named, read-out: uM
# Chain of KDR kinase (P35968 with tags, fused parts or gaps DEL940-989/E990V): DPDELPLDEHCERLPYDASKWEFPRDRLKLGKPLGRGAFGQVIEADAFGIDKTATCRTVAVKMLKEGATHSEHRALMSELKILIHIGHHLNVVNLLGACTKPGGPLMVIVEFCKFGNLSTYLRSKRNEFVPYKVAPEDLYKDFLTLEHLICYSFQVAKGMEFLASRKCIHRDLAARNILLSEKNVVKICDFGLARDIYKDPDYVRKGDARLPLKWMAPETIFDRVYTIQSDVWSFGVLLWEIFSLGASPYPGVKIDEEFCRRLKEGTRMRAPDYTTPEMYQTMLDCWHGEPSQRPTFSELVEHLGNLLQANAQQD
# Chain of B-Raf(V599E) kinase (P15056 with tags, fused parts or gaps V600E): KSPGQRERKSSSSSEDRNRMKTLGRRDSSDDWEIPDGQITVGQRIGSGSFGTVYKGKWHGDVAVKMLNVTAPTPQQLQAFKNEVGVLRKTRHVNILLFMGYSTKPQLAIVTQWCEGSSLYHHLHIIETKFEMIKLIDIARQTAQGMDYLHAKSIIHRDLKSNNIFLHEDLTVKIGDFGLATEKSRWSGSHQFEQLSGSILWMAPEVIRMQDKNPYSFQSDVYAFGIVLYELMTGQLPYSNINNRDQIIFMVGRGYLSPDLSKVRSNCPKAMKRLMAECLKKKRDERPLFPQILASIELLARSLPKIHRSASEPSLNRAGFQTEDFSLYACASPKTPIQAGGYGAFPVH
# T1 sequence (Q16539 whole entry): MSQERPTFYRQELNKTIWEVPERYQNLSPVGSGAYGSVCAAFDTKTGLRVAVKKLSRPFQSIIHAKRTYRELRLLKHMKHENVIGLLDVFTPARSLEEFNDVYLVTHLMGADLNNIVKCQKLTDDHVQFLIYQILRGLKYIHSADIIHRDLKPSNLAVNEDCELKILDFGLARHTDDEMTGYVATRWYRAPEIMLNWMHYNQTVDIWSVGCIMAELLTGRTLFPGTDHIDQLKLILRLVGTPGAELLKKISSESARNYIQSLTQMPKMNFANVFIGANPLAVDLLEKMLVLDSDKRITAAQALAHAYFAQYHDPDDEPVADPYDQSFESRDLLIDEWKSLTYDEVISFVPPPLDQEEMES
# Chain of phosphorylated p-38-alpha kinase (Q16539 1-360 isoform Q16539-2): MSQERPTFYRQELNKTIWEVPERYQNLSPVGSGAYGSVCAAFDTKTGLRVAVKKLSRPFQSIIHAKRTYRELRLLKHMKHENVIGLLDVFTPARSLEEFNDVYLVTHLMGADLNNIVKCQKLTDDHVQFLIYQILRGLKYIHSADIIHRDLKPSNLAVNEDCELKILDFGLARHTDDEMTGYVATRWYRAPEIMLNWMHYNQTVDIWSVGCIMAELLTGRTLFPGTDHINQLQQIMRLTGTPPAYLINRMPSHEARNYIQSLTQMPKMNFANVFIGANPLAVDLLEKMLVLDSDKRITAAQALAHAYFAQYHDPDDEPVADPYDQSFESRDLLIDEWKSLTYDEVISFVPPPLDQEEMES
Compound,IC50 [1],"IC50 [2, 5]",inhibition at 10 µM [4],also measured
"O=C(O)Cc1cccc(-n2nc(-c3cccc(F)c3)cc2NC(=O)Nc2cccc(Cl)c2Cl)c1 [Example 432, 2-(3-(5-(3-(2,3-dichlorophenyl)ureido)-3-(3-fluorophenyl)-1H-pyrazol-1-yl)phenyl)acetic acid]",0.011 µM,–,–,"% @ concentration, uM ([2]; Table 5, @ 1 uM): 9%; % @ concentration, uM ([2]; Table 5, @ 10 uM): 24%"
"O=C(O)Cc1cccc(-n2nc(-c3cccs3)cc2NC(=O)Nc2cccc(Cl)c2Cl)c1 [Example 435, 2-(3-(5-(3-(2,3-dichlorophenyl)ureido)-3-(thiophen-2-yl)-1H-pyrazol-1-yl)phenyl)acetic acid]",–,–,–,IC50 [3]: 0.16 µM
"O=C(O)Cc1ccc(-n2nc(-c3ccccc3)cc2NC(=O)Nc2cccc(Cl)c2Cl)cc1 [Example 438, 2-(4-(5-(3-(2,3-dichlorophenyl)ureido)-3-phenyl-1H-pyrazol-1-yl)phenyl)acetic acid]",–,1.3 µM,39%,–
"O=C(O)Cc1ccc(-n2nc(-c3cccc(F)c3)cc2NC(=O)Nc2cccc(Cl)c2Cl)cc1 [Example 439, 2-(4-(5-(3-(2,3-dichlorophenyl)ureido)-3-(3-fluorophenyl)-1H-pyrazol-1-yl)phenyl)acetic acid]",0.013 µM,–,–,–
"O=C(O)Cc1ccc(-n2nc(-c3ccccc3F)cc2NC(=O)Nc2cccc(Cl)c2Cl)cc1 [Example 440, 2-(4-(5-(3-(2,3-dichlorophenyl)ureido)-3-(2-fluorophenyl)-1H-pyrazol-1-yl)phenyl)acetic acid]",0.009 µM,0.92 µM,56%,–
"O=C(O)Cc1ccc(-n2nc(-c3ccsc3)cc2NC(=O)Nc2cccc(Cl)c2Cl)cc1 [Example 444, 2-(4-(5-(3-(2,3-dichlorophenyl)ureido)-3-(thiophen-3-yl)-1H-pyrazol-1-yl)phenyl)acetic acid]",0.006 µM,5 µM,–,inhibition at 1 µM [3]: 42%
"NC(=O)Cc1cccc(-n2nc(-c3ccccc3)cc2NC(=O)Nc2cccc(Cl)c2Cl)c1 [Example 447, 1-(1-(3-(2-amino-2-oxoethyl)phenyl)-3-phenyl-1H-pyrazol-5-yl)-3-(2,3-dichlorophenyl)urea]",0.011 µM,–,–,–
"NC(=O)Cc1cccc(-n2nc(-c3cccc(F)c3)cc2NC(=O)Nc2cccc(Cl)c2Cl)c1 [Example 449, 1-(1-(3-(2-amino-2-oxoethyl)phenyl)-3-(3-fluorophenyl)-1H-pyrazol-5-yl)-3-(2,3-dichlorophenyl)urea]",0.022 µM,–,33%,–
"NC(=O)Cc1cccc(-n2nc(-c3ccccc3F)cc2NC(=O)Nc2cccc(Cl)c2Cl)c1 [Example 450, 1-(1-(3-(2-amino-2-oxoethyl)phenyl)-3-(2-fluorophenyl)-1H-pyrazol-5-yl)-3-(2,3-dichlorophenyl)urea]",0.013 µM,–,45%,"% @ concentration, uM ([2]; Table 5, @ 1 uM): 89%; % @ concentration, uM ([2]; Table 5, @ 10 uM): 192%"
"NC(=O)Cc1cccc(-n2nc(-c3cccs3)cc2NC(=O)Nc2cccc(Cl)c2Cl)c1 [Example 451, 1-(1-(3-(2-amino-2-oxoethyl)phenyl)-3-(thiophen-2-yl)-1H-pyrazol-5-yl)-3-(2,3-dichlorophenyl)urea]",0.008 µM,–,–,"IC50 [3]: 0.84 µM; % @ concentration, uM ([2]; Table 5, @ 1 uM): 3% @1"
"CC(C(N)=O)c1cccc(-n2nc(-c3ccsc3)cc2NC(=O)Nc2cccc(Cl)c2Cl)c1 (centres unmarked) [Example 453, 1-(1-(3-(1-amino-1-oxopropan-2-yl)phenyl)-3-(thiophen-3-yl)-1H-pyrazol-5-yl)-3-(2,3-dichlorophenyl)urea]",–,–,34%,–
"O=C(Cc1cccc(-n2nc(-c3ccccc3)cc2NC(=O)Nc2cccc(Cl)c2Cl)c1)NCCO [Example 454, 1-(2,3-dichlorophenyl)-3-(1-(3-(2-(2-hydroxyethylamino)-2-oxoethyl)phenyl)-3-phenyl-1H-pyrazol-5-yl)urea]",–,–,27%,–
"O=C(Cc1cccc(-n2nc(-c3cccc(F)c3)cc2NC(=O)Nc2cccc(Cl)c2Cl)c1)NCCO [Example 455, 1-(2,3-dichlorophenyl)-3-(3-(3-fluorophenyl)-1-(3-(2-(2-hydroxyethylamino)-2-oxoethyl)phenyl)-1H-pyrazol-5-yl)urea]",0.018 µM,0.1 µM,–,inhibition at 1 µM [3]: 30%
"O=C(Cc1cccc(-n2nc(-c3ccsc3)cc2NC(=O)Nc2cccc(Cl)c2Cl)c1)NCCO [Example 458, 1-(2,3-dichlorophenyl)-3-(1-(3-(2-(2-hydroxyethylamino)-2-oxoethyl)phenyl)-3-(thiophen-3-yl)-1H-pyrazol-5-yl)urea]",0.007 µM,1 µM,–,inhibition at 1 µM [3]: 28%
"NC(=O)Cc1ccc(-n2nc(-c3cccs3)cc2NC(=O)Nc2cccc(Cl)c2Cl)cc1 [Example 468, 1-(1-(4-(2-amino-2-oxoethyl)phenyl)-3-(thiophen-2-yl)-1H-pyrazol-5-yl)-3-(2,3-dichlorophenyl)urea]",0.009 µM,0.0086 µM,–,IC50 [3]: 1.2 µM
"O=C(Cc1ccc(-n2nc(-c3cccs3)cc2NC(=O)Nc2cccc(Cl)c2Cl)cc1)NCC(O)CO (centres unmarked) [Example 472, 1-(2,3-dichlorophenyl)-3-(1-(4-(2-(2,3-dihydroxypropylamino)-2-oxoethyl)phenyl)-3-(thiophen-2-yl)-1H-pyrazol-5-yl)urea]",0.01 µM,0.05 µM,–,–
"O=C(Cc1ccc(-n2nc(-c3cccs3)cc2NC(=O)Nc2cccc(Cl)c2Cl)cc1)NC(CO)CO [Example 474, 1-(2,3-dichlorophenyl)-3-(1-(4-(2-(1,3-dihydroxypropan-2-ylamino)-2-oxoethyl)phenyl)-3-(thiophen-2-yl)-1H-pyrazol-5-yl)urea]",0.013 µM,0.38 µM,–,–
"O=C(Nc1cccc(Cl)c1Cl)Nc1cc(-c2ccccc2F)nn1-c1ccc(CC(=O)N2CC[C@H](O)C2)cc1 [Example 479, 1-(2,3-dichlorophenyl)-3-(3-(2-fluorophenyl)-1-(4-(2-((S)-3-hydroxypyrrolidin-1-yl)-2-oxoethyl)phenyl)-1H-pyrazol-5-yl)urea]",0.037 µM,–,–,–
"O=C(Nc1cccc(Cl)c1Cl)Nc1cc(-c2ccccc2F)nn1-c1cccc(CO)c1 [Example 485, 1-(2,3-dichlorophenyl)-3-(3-(2-fluorophenyl)-1-(3-(hydroxymethyl)phenyl)-1H-pyrazol-5-yl)urea]",–,0.05 µM,79%,–
"O=C(Nc1cccc(Cl)c1Cl)Nc1cc(-c2cccs2)nn1-c1cccc(CO)c1 [Example 486, 1-(2,3-dichlorophenyl)-3-(1-(3-(hydroxymethyl)phenyl)-3-(thiophen-2-yl)-1H-pyrazol-5-yl)urea]",–,0.057 µM,–,–
"CC(Cc1cccc(-n2nc(-c3cccs3)cc2NC(=O)Nc2cccc(Cl)c2Cl)c1)C(=O)O (centres unmarked) [Example 490, 3-(3-(5-(3-(2,3-dichlorophenyl)ureido)-3-(thiophen-2-yl)-1H-pyrazol-1-yl)phenyl)-2-methylpropanoic acid]",–,0.34 µM,–,–
"CC(C)(C)c1cc(NC(=O)Nc2cccc(-c3cnccn3)c2)n(-c2cccc(CC(N)=O)c2)n1 [Example 509, 1-(1-(3-(2-amino-2-oxoethyl)phenyl)-3-tert-butyl-1H-pyrazol-5-yl)-3-(3-(pyrazin-2-yl)phenyl)urea]",–,0.5 µM,–,"IC50 [3]: 0.28 µM; Results, % @ concentration μM ([1]; @ 1.0 μM): 57% @1.0"
"CC(C)(C)c1cc(NC(=O)Nc2cccc3ccccc23)n(-c2cccc(CO)c2)n1 [Example D, 1-{3-t-butyl-1-[3-(hydroxymethyl)phenyl]-1H-pyrazol-5-yl}-3-(naphthalen-1-yl)urea]",–,–,–,"IC50 ([2]; Table 2, rates at […] to 2 h, read-out: IC50): 0.179 µM"
